# Measurements taken from PMC8062000, “High-throughput screening of the ReFRAME, Pandemic Box, and COVID Box drug repurposing libraries against SARS-CoV-2 nsp15 endoribonuclease to identify small-molecule inhibitors of viral activity” (PLoS ONE, 2021).
# Several values for one entry are separate records, joined by “and”; a condition that tells them apart may be missing. Equal entries are not always repeated. Where two headings read alike, the source gives them in different places.
# Legend:
# [1] = molecular target: T1, SARS-CoV-2 nsp15 endoribonuclease (endoU) (Severe acute respiratory syndrome coronavirus 2, UniProt P0DTD1); assay: biochemical; assay type: biochemical; conditions: for inhibition at 10 µM: read-out: 1° FRET Assay % inhibition
# SARS-CoV-2 nsp15 [2] = molecular target: T2, SARS-CoV-2 nsp15 (Severe acute respiratory syndrome coronavirus 2, UniProt P0DTD1); assay type: binding
# [3] = Amplex Red redox-cycling counter screen (H2O2 generation with DTT); conditions: 1 mM DTT; compared with redox-cycling reference DA-3003-1
# SARS-CoV-2 nsp15 [4] = molecular target: T2, SARS-CoV-2 nsp15; assay: Native MS (CID/SID) ligand binding to nsp15
# Description: In native MS, nsp15 was electrosprayed from non-denaturing ammonium acetate solution in the presence of an inhibitor. Inhibitor binding can be evaluated by monitoring the increase in mass of the inhibitor-nsp15 complex compared to the apo (protein with no ligand) nsp15 protein. […] Collision-induced dissociation (CID), widely available in commercial mass spectrometers, involves acceleration of protein ions into a pressurized collision cell. Upon CID, the internal energy of the protein increases from multiple collisions with neutral gas molecules.
# By increasing the acceleration voltage to 120V, CID and SID of the nsp15 hexamer both released primarily monomeric species (Fig 6B and 6C), with SID resulting in lower charged monomers and additional dimers/trimers. […] The peak cluster centered at 41.2 kDa is the apo protein (sequence mass and salt adducts).
# Recombinant nsp15 was buffer exchanged into 100 mM ammonium acetate (pH adjusted to 7.5 using ammonium hydroxide) using size exclusion spin columns (Zeba Micro Spin Desalting Columns, 7k MWCO, 75 μL) following manufacturer’s protocol. The protein solution was then diluted to 5 μM, supplemented with 10 μM Mn(II) acetate, and mixed with ligands at desired concentrations. […]
# SARS-CoV-2 [5] = assay: microbe, parasite or virus in culture; assay type: cell-based; conditions: for protection against viral CPE: Vero 76
# [6] = Mammalian cytotoxicity assay, HepG2; conditions: human, HepG2 hepatocyte cells
# [7] = Mammalian cytotoxicity assay, CRL-8155; conditions: human, CRL-8155 lymphocyte cells
# [8] = Solubility observation in DMSO and assay buffer; conditions: diluted in assay buffer
# SARS-CoV-2 [9] = test system: SARS-CoV-2; set-up: method as in PMID 33564093; conditions: at 50 μM concentrations ref 15; cited from earlier work
# [10] = molecular target: T1, SARS-CoV-2 nsp15 endoribonuclease (endoU); assay: biochemical; conditions: 0.78 μM nsp15, 500 ng poly(rA) substrate, 2 h; n = 3; read-out: RNA Cleavage Assay IC50
# SARS-CoV-2 [11] = assay: microbe, parasite or virus in culture; assay type: cell-based; conditions: Severe acute respiratory syndrome coronavirus 2, read-out: EC90 (concentration that reduces viral replication by 90%); Caco-2, microscopic observation
# [12] = test system: SARS-CoV-2 (isolate USA WA1/2020); assay: microbe, parasite or virus in culture; assay type: cell-based; conditions: Severe acute respiratory syndrome coronavirus 2; Calu-3, MOI = 0.5, 48 h, immunostaining; read-out: EC50 (infection)
# [13] = 100 mg/kg oral dose, Sprague-Dawley rats, no reference given, cited from earlier work
# [14] = mice, 100 mg/kg per day for 6 months ref 37; cited from earlier work
# [15] = Cytotoxicity in Caco-2 cells; conditions: human
# [16] = Cell viability in Calu-3 cells (cell number per well); conditions: human, CC50, Calu-3, 48 h
# [17] = Cytotoxicity in Vero 76 cells (CPE assay toxicity wells); conditions: African green monkey
# [18] = primary screen at 10 μM, 25 nM nsp15, 0.5 μM substrate, 1 h
compound,measurement,setting,value
Cc1nc2c(s1)C(=O)C=C(NCCN(C)C)C2=O [BN-82685],inhibition at 10 µM,[1]; [18],76%
same,DSF Assay ΔTm,SARS-CoV-2 nsp15 [2],-11.3 °C
same,nsp15 Tm lowered by,SARS-CoV-2 nsp15 [2],more than 10 °C
same,Amplex Red Assay % Activity (redox cycling),[3],>100%
CC1(C)C(=O)N=C2C1=C(O)C(=O)c1ccccc12 [BVT-948],1° FRET Assay % inhibition,[1],90%
same,IC50,[1]; read-out: 2° FRET Assay IC50,4.96 µM
same,IC50,[1]; read-out: 3° FRET Assay IC50,0.1 µM
same,DSF Assay ΔTm,SARS-CoV-2 nsp15 [2],-11.8 °C
same,nsp15 Tm lowered by,SARS-CoV-2 nsp15 [2],more than 10 °C
O=C(Nc1cccc(C2=NCCN2)c1)c1ccc(-c2ccc(C(=O)Nc3cccc(C4=NCCN4)c3)cc2)cc1 [MMV1580853],inhibition at 10 µM,[1]; [18],62%
same,DSF Assay ΔTm,SARS-CoV-2 nsp15 [2],0.1 °C
same,Amplex Red Assay % Activity (redox cycling),[3],< 25%
same,binding detected on CID- or SID-released monomers,"SARS-CoV-2 nsp15 [4]; ~10 μM compound, 5 μM nsp15",too weak to be detected
same,protection against viral CPE,SARS-CoV-2 [5],Neither Piroxantrone nor MMV1580853 exhibited protection against viral CPE
same,CC50 at 48 h,[6],> 80 µM
same,CC50 at 48 h,[7],> 80 µM
same,solubility,[8],poor solubility
C[C@@H]1CNS(=O)(=O)N(c2ccc3c(C#N)nccc3c2)C1 [PF-06260414],1° FRET Assay % inhibition,[1],74%
same,IC50,[1]; read-out: 2° FRET Assay IC50,7.69 µM
same,IC50,[1]; read-out: 3° FRET Assay IC50,> 80 µM
CC(C)(O/N=C(\C(=O)N[C@@H]1C(=O)N2C(C(=O)[O-])=C(C[n+]3ccccc3)CS[C@H]12)c1csc(N)n1)C(=O)O [Ceftazidime],IC50,[1]; 2° FRET Assay IC50,> 10 µM
same,IC50,[1]; 3° FRET Assay IC50,72 µM
same,inhibition at 10 µM,[1]; [18],66%
NCCCNc1ccc2c3c(nn2CCNCCO)-c2c(O)ccc(O)c2C(=O)c13 [Piroxantrone],inhibition at 10 µM,[1]; [18],74%
same,DSF Assay ΔTm,SARS-CoV-2 nsp15 [2],-1.1 °C
same,protection against viral CPE,SARS-CoV-2 [5],Neither Piroxantrone nor MMV1580853 exhibited protection against viral CPE
same,CC50 at 48 h,[6],33.9 µM
same,CC50 at 48 h,[7],< 1.25 µM
CC1(C)CCC2=C(O1)c1ccccc1C(=O)C2=O [β-Lapachone],3° FRET Assay IC50,[1],sub-micromolar
same,IC50,[1]; 2° FRET Assay IC50,2.78 µM
same,IC50,[1]; 3° FRET Assay IC50,0.31 µM
same,inhibition at 10 µM,[1],73%
same,DSF Assay ΔTm,SARS-CoV-2 nsp15 [2],-11.5 °C
same,nsp15 Tm lowered by,"SARS-CoV-2 nsp15 [2]; negative Tm shift, 100 μM ligand",more than 10 °C
same,Amplex Red Assay % Activity (redox cycling),[3],>100%
C/C1=C2/[N-][C@H]([C@H](CC(N)=O)[C@@]2(C)CCC(=O)NC[C@@H](C)OP(=O)([O-])O[C@H]2[C@@H](O)[C@@H](n3cnc4cc(C)c(C)cc43)O[C@@H]2CO)[C@]2(C)N=C(/C(C)=C3N=C(/C=C4N=C1[C@@H](CCC(N)=O)C\4(C)C)[C@@H](CCC(N)=O)[C@]\3(C)CC(N)=O)[C@@H](CCC(N)=O)[C@]2(C)CC(N)=O.[CH3-].[Co+3] [Mecobalamin],1° FRET Assay % inhibition,[1]; [18],58%
same,IC50,"[1]; secondary dose response, 8-point 3-fold, top concentration 10 μM, read-out: 2° FRET Assay IC50",3.34 µM
same,IC50,"[1]; tertiary dose response, expanded concentration range, read-out: 3° FRET Assay IC50",18.3 µM
same,DSF Assay ΔTm,SARS-CoV-2 nsp15 [2],-3.4 °C
N=C1CCCN1Cc1nc(O)nc(O)c1Cl [tipiracil],antiviral activity,SARS-CoV-2 [9],only minimal antiviral activity
COc1cccc2c1C(=O)c1c(O)c3c(c(O)c1C2=O)C[C@@](O)(C(=O)CO)C[C@@H]3O[C@H]1C[C@H](N)[C@H](O[C@@H]2CCCCO2)[C@H](C)O1 [pirarubicin],IC50,[1]; 2° FRET Assay IC50,3.78 µM
same,IC50,[1]; 3° FRET Assay IC50,5.98 µM
same,inhibition at 10 µM,[1],66%
same,DSF Assay ΔTm,SARS-CoV-2 nsp15 [2],0.4 °C
Cc1cc(N)c2cc(NC(=O)Nc3ccc4nc(C)cc(N)c4c3)ccc2n1 [Aminoquinuride],inhibition at 10 µM,[1],95%
CCc1ccccc1NC(=O)Oc1ccc2c(c1)[C@]1(C)CCN(C)O[C@@H]1N2C [Ganstigmine],inhibition at 10 µM,[1],51%
O=C(Nc1ccc(O)c(O)c1)c1cccc(O)c1O [Exebryl-1],inhibition at 10 µM,[1]; [18],57%
same,DSF Assay ΔTm,SARS-CoV-2 nsp15 [2],0.1 °C
same,IC50,[10],9.27 µM
same,Kd,SARS-CoV-2 nsp15 [4],~12 µM
same,EC50,"SARS-CoV-2 [5]; Severe acute respiratory syndrome coronavirus 2, Vero 76, read-out: EC50 (concentration that reduces CPE by 50%)",10 µM
same,EC50,"SARS-CoV-2 [5]; Severe acute respiratory syndrome coronavirus 2, Vero 76, neutral red staining, read-out: EC50 (CPE)",16 µM
same,antiviral activity,"SARS-CoV-2 [5]; summary across Vero 76, Caco-2, and Calu-3 cells",10 to 66 µM
same,EC90,SARS-CoV-2 [11],51 µM
same,EC50,[12],65.6 µM
same,plasma concentration,[13]; at 1 h,9 µM
same,plasma levels,[13]; by 4 h after dosing,below 4 μM
same,toxicity,[14],without evident toxicity
same,CC50,[15],61 µM
same,CC50 at 48 h,[6],> 200 µM
same,CC50 at 48 h,[7],37.8 µM
same,CC50 at 48 h,[16],> 200 µM
same,CC50 at 5 days,"[17]; CC50, Vero 76, microscopic observation",52 µM
same,CC50 at 5 days,"[17]; CC50, Vero 76 cell growth, neutral red staining",57 µM
CC(=O)[C@]1(O)Cc2c(O)c3c(c(O)c2[C@@H](O[C@H]2C[C@H](N)[C@H](O)[C@H](C)O2)C1)C(=O)c1c(O)cccc1C3=O [Carubicin],inhibition at 10 µM,[1],56%
COC1=C(N)C(=O)c2nc(-c3nc(C(=O)O)c(C)c(-c4ccc(OC)c(OC)c4O)c3N)ccc2C1=O [Streptonigrin],3° FRET Assay IC50,[1],sub-micromolar
same,IC50,[1]; 2° FRET Assay IC50,4.25 µM
same,IC50,[1]; 3° FRET Assay IC50,0.29 µM
same,inhibition at 10 µM,[1],89%
same,DSF Assay ΔTm,SARS-CoV-2 nsp15 [2],-11.5 °C
same,nsp15 Tm lowered by,SARS-CoV-2 nsp15 [2],more than 10 °C
same,Amplex Red Assay % Activity (redox cycling),[3],>100%
CC(=O)O[C@H]1C[C@@H]2CC[C@@H]3[C@H](CC[C@@]4(C)[C@H]3C[C@H]([N+]3(C)CCCCC3)[C@@H]4OC(C)=O)[C@@]2(C)C[C@@H]1N1CCCCC1 [vecuronium bromide],inhibition at 10 µM,[1],61%
Cc1cc(-c2ccc(/N=N/c3c(S(=O)(=O)O)cc4cc(S(=O)(=O)O)cc(N)c4c3O)c(C)c2)ccc1/N=N/c1c(S(=O)(=O)O)cc2cc(S(=O)(=O)O)cc(N)c2c1O [Trypan Blue],IC50,[1]; 2° FRET Assay IC50,5.08 µM and 7.78 µM
same,1° FRET Assay % inhibition,[1]; [18],51%
same,inhibition at 10 µM,[1]; [18],58%
COc1cccc2c1C(=O)c1c(O)c3c(c(O)c1C2=O)C[C@@](O)(C(=O)CO)C[C@@H]3O[C@H]1C[C@H](N)[C@H](O)[C@H](C)O1 [Doxorubicin],IC50,[1]; 2° FRET Assay IC50,7.46 µM
same,IC50,[1]; 3° FRET Assay IC50,9.29 µM
O=C1NC(=O)/C(=C\c2ccccc2)C2=C1CCCC2 [Tesimide],inhibition at 10 µM,[1]; [18],82%
same,DSF Assay ΔTm,SARS-CoV-2 nsp15 [2],-11.7 °C
same,nsp15 Tm lowered by,SARS-CoV-2 nsp15 [2],more than 10 °C
O=C1C(NC2CCCCCCC2)=CC(=O)c2ncccc21 [Azaquinone],inhibition at 10 µM,[1]; [18],80%
same,DSF Assay ΔTm,SARS-CoV-2 nsp15 [2],-11.4 °C
same,nsp15 Tm lowered by,SARS-CoV-2 nsp15 [2],more than 10 °C
same,Amplex Red Assay % Activity (redox cycling),[3],>100%
